According to patent US20120196927A1, “PROPHYLACTIC AND/OR THERAPEUTIC AGENT FOR METABOLIC SYNDROME” (priority 2009, published 2012):

How the values were obtained:
C57BL/6J-ob/ob mice [1] = test: Diabetes model mice: fasting blood glucose level; type: in vivo, mouse; conditions: nobiletin 200 mg/kg/day, Pioglitazone 30 mg/kg/day p.o.
Procedure: Two weeks or 5 weeks from the beginning of the administration, the fasting blood glucose was measured (n=10). The measurement of the blood glucose level was carried out as the same as that of the example 1.

C57BL/6J-ob/ob mice [2] = test: Diabetes model mice: oral glucose tolerance test (OGTT); type: in vivo, mouse; conditions: nobiletin 200 mg/kg/day, Pioglitazone 30 mg/kg/day
Procedure: The oral glucose tolerance test (OGTT) for the diabetes model mice (ob/ob) to which the nobiletin and others were administrated was subjected to the glucose tolerance test for studying the effects.
From 4 weeks after the start of the administration, the mice in each group were fasted for 16 hours, and then they were administrated 2 g/kg body weight of glucose per os. After the administration of glucose, […] of blood was collected from the tail vein at the time point of 0, 30, 60 and 120 minutes. Collected blood was centrifuged at 4° C., 3,000×g, for 15 minute to obtain plasma (n=10). The blood glucose level was measured as the same as that described in the example 1.

[3] = tested on: GLUT4, Adiponectin, TNF-α, MCP-1, IL-6, PPARγ, aP2, LPL, Perilipin genes; test: Diabetes model mice: mRNA expression in the white adipose tissue (real time RT-PCR); type: in vivo, mouse; conditions: ob/ob mice, Vehicle = 1.00, nobiletin 200 mg/kg/day, Pioglitazone 30 mg/kg/day, 5 weeks
Procedure: (§1) The effects by nobiletin ingestion to the mRNA expression in the white adipose tissue and the liver were measured (n=10).
(§2) After the termination of the administration period for 5 weeks, mRNA expression levels of respective genes shown in the table 10 were determined by using real time RT-PCR method. The real time RT-PCR was carried out according to an operation manual provided by ISOGEN (NIPPON GENE CO., LTD); RNA was extracted from the white adipose tissue and the liver. Next, cDNA was prepared from using 1 μg of RNA by using Reverse Transcription System kit (Promega Corp., USA). Next, suitable primers for the above-mentioned genes were prepared according to the operation manual provided by FastStart universal SYBR (a registered trademark) Greenmaster PCR KIT agent (Roche Diagnostics K. K., Germany).
(§3) Real time PCR system 7700HT (Applied Biosytems, USA) was used for the determination to carry out the real time PCR by using the cDNAs as templates. Each reaction conditions were set according to the manual of the PCR KIT. Quantitative analysis of the RNA amount was carried out based on comparative Ct method by using glyceraldehyde 3-phosphate dehydrogenase (GAPDH) as the standard reference.

[4] = tested on: gluconeogenesis-related genes PEPCK, G6Pase; test: Diabetes model mice: mRNA expression in the liver (real time RT-PCR); type: in vivo, mouse; conditions: ob/ob mice, Vehicle = 1.00, nobiletin 200 mg/kg/day, Pioglitazone 30 mg/kg/day, 5 weeks
Procedure: as §1, §2, §3

male C57BL/6 mice = test: Nobiletin, obesity-induced mice: glucose tolerance test (OGTT); type: in vivo, mouse; conditions: for Blood glucose level (OGTT): HFD
Procedure: The sugar tolerance test was carried out as the same as those done in the example 2 (n=9).

[5] = tested on: adipose cells of the white adipose tissue; test: Nobiletin, obesity-induced mice: size of the adipose cells; type: in vivo, mouse; conditions: epididymis adipose tissue sections
Excerpt: After the completion of the experiment, the adipose tissue of mice epididymis was excised to prepare sections to stain by using both of hematoxylin and eosin (n=9). These sections were observes under the microscope with 200-fold magnification to compare cell seizes in the field of photomicroscope vision.

[6] = tested on: SREBP1-c, SCD1, FAS, ACC1, DGAT1, GLUT4, Adiponectin, TNF-α, MCP-1, PPARγ genes; test: Nobiletin, obesity-induced mice: gene expression in the white adipose tissue (mRNA); type: in vivo, mouse
Procedure: mRNA expression level was determined by using real time PCR as follows. According to the direction attached with ISOGEN (Nippon Gene Co., Ltd), RNA was extracted from white adipose tissue, liver, and skeletal muscle. Next, cDNA was prepared from 1 μg of RNA by using Reverse Transcription System kit (Promega, USA). Subsequently, according to the direction attached with FastStart universal SYBR (Registered trademark) Greenmaster PCR kit reagent (Roche Diagnostics, Germany), primers suitable for each intended gene in the following experiments were synthesized. Real time PCR system 7700 HT (Applied Biosytems, USA) was used for the measurement, the cDNA was used as templates for the real time PCR. Reaction conditions were followed to those for the PCR kit reagents. Quantitative analysis of RNA level was performed by Comparison Ct method, using glyceraldehyde 3-phosphate dehydrogenase (GAPDH) as the standard.
The expression of mouse lipid biosynthesis-related gene and other gene shown in the following table 24 after obesity induction by ingesting the high fat diet were determined as mRNA levels to study the effects of nobiletin to these gene expression (n=9). The expression levels of each gene were shown in the ratio when those of the HFD were 1.

C57BL/6J-ob/ob mice [7] = conditions: nobiletin 200 mg/kg/day, Pioglitazone 30 mg/kg/day, 5 weeks
Excerpt: Diabetes model mice and the experimental system were as follows. As the diabetes model mice, 7 week age of male C57BL/6J-ob/ob (hereinafter, it was referred to as “ob/ob”) were purchased from Charles River Laboratories Japan Inc., and used as 10 mice/group.
For the negative control group (from FIGS. 5 to 10, it was shown as Vehicle; hereinafter, it is referred to as “solvent administration group”), 0.3% of CMC aqueous solution was administrated orally for 5 weeks in everyday at the dosage of 0.01 mL/g body weight. For the positive control group (in FIGS. 5 to 10 and hereinafter, it was referred to as “P30 administrated group”), 3 mg of Pioglitazone was suspended in 0.3% CMC aqueous solution so as to be orally administrated at the dosage of 0.01 mL/g body weight for 5 weeks in everyday (dosage: 30 mg/kg body weight/day). […]
The blood insulin level was measured as described in below. […] As lipids in plasma, concentrations of neutral fat (TG) and total cholesterol (T-CHO) were measured. Plasma insulin level was measured by using rebis insulin mouse (type U) (Shibayagi Co. Ltd.) based on the enzyme-immunoassay.

[8] = ratio HFD = 1, nobiletin 10 mg/kg/day p.o. 5 weeks
[9] = ratio HFD = 1, nobiletin 100 mg/kg/day p.o. 5 weeks

In the case of COc1ccc(-c2cc(=O)c3c(OC)c(OC)c(OC)c(OC)c3o2)cc1OC [nobiletin], the “Blood glucose level (fasting)” value (C57BL/6J-ob/ob mice [1]; 0 week after administration) is reported as 175.61 ± 11.44 mg/dL, the “Blood glucose level (fasting)” value (C57BL/6J-ob/ob mice [1]; 2 weeks after administration) is reported as 169.22 ± 13.22 mg/dL and the “Blood glucose level (fasting)” value (C57BL/6J-ob/ob mice [1]; 5 weeks after administration) is reported as 148.46 ± 7.56 mg/dL. For the same compound, the “Blood glucose level (OGTT)” value (C57BL/6J-ob/ob mice [2]; 0 min after 2 g/kg glucose p.o.) was 145.26 ± 7.56 mg/dL, the “Blood glucose level (OGTT)” value (C57BL/6J-ob/ob mice [2]; 30 min after 2 g/kg glucose p.o.) was 304.41 ± 20.23 mg/dL and the “Blood glucose level (OGTT)” value (C57BL/6J-ob/ob mice [2]; 60 min after 2 g/kg glucose p.o.) was 207.47 ± 11.56 mg/dL. The “Blood glucose level (OGTT)” value (C57BL/6J-ob/ob mice [2]; 120 min after 2 g/kg glucose p.o.) was 192.57 ± 9.01 mg/dL, the “Gene expression level (ratio), [W]Adiponectin” value [3] was 1.54 ± 0.04 and the “Gene expression level (ratio), [W]GLUT4” value [3] was 1.88 ± 0.12. The “Gene expression level (ratio), [W]IL-6” value [3] was 0.55 ± 0.03, the “Gene expression level (ratio), [W]LPL” value [3] was 1.50 ± 0.18 and the “Gene expression level (ratio), [W]MCP-1” value [3] was 0.64 ± 0.02. The “Gene expression level (ratio), [W]PPARγ” value [3] was 1.79 ± 0.02, the “Gene expression level (ratio), [W]Perilipin” value [3] was 1.61 ± 0.17 and the “Gene expression level (ratio), [W]TNF-α” value [3] was 0.80 ± 0.048. The “Gene expression level (ratio), [W]aP2” value [3] was 1.10 ± 0.01, the “Gene expression level (ratio), [L]G6Pase” value [4] was 0.29 ± 0.01 and the “Gene expression level (ratio), [L]PEPCK” value [4] was 0.34 ± 0.03. For the same compound, the “area under the curve (AUC) of blood glucose in OGTT, compared with HFD administration group” value (male C57BL/6 mice; 0 to 120 minutes, nobiletin 10 mg/kg/day p.o.) was “no significant difference”, the “area under the curve (AUC) of blood glucose in OGTT, compared with HFD group” value (male C57BL/6 mice; 0 to 120 minutes, nobiletin 100 mg/kg/day p.o., p<0.05) was “significant difference” and the “Blood glucose level (OGTT)” value (male C57BL/6 mice; 0 minute after glucose, nobiletin 10 mg/kg/day p.o.) was 157.47 ± 10.54 mg/dL. The “Blood glucose level (OGTT)” value (male C57BL/6 mice; 0 minute after glucose, nobiletin 100 mg/kg/day p.o.) was 128.49 ± 5.59 mg/dL, the “Blood glucose level (OGTT)” value (male C57BL/6 mice; 15 minutes after glucose, nobiletin 10 mg/kg/day p.o.) was 384.94 ± 17.66 mg/dL and the “Blood glucose level (OGTT)” value (male C57BL/6 mice; 15 minutes after glucose, nobiletin 100 mg/kg/day p.o.) was 340.91 ± 16.88 mg/dL. The “Blood glucose level (OGTT)” value (male C57BL/6 mice; 30 minutes after glucose, nobiletin 10 mg/kg/day p.o.) was 342.5 ± 27.08 mg/dL, the “Blood glucose level (OGTT)” value (male C57BL/6 mice; 30 minutes after glucose, nobiletin 100 mg/kg/day p.o.) was 334.84 ± 16.98 mg/dL and the “Blood glucose level (OGTT)” value (male C57BL/6 mice; 60 minutes after glucose, nobiletin 10 mg/kg/day p.o.) was 271.76 ± 31.64 mg/dL. The “Blood glucose level (OGTT)” value (male C57BL/6 mice; 60 minutes after glucose, nobiletin 100 mg/kg/day p.o.) was 267.27 ± 18.22 mg/dL, the “Blood glucose level (OGTT)” value (male C57BL/6 mice; 120 minutes after glucose, nobiletin 10 mg/kg/day p.o.) was 217.1 ± 35.92 mg/dL and the “Blood glucose level (OGTT)” value (male C57BL/6 mice; 120 minutes after glucose, nobiletin 100 mg/kg/day p.o.) was 178.45 ± 15.37 mg/dL. The “adipose cell size compared with HFD group” value ([5]; nobiletin 10 mg/kg/day p.o. 5 weeks) was “not large difference”, the “adipose cell size compared with HFD group” value ([5]; nobiletin 100 mg/kg/day p.o. 5 weeks) was “became smaller” and the “Expression level, ACC1” value [6, 8] was 2.06 ± 0.05. The “Expression level, Adiponectin” value [6, 8] was 1.97 ± 0.09, the “Expression level, DGAT1” value [6, 8] was 2.17 ± 0.19 and the “Expression level, FAS” value [6, 8] was 2.78 ± 0.06. The “Expression level, GLUT4” value [6, 8] was 1.34 ± 0.09, the “Expression level, MCP-1” value [6, 8] was 0.44 ± 0.02 and the “Expression level, PPARγ” value [6, 8] was 1.61 ± 0.11. The “Expression level, SCD1” value [6, 8] was 2.30 ± 0.06, the “Expression level, SREBP1-c” value [6, 8] was 2.15 ± 0.21 and the “Expression level, TNF-α” value [6, 8] was 1.06 ± 0.12. For the same compound, the “Expression level, ACC1” value [6, 9] was 1.69 ± 0.07, the “Expression level, Adiponectin” value [6, 9] was 2.02 ± 0.08 and the “Expression level, DGAT1” value [6, 9] was 1.80 ± 0.14. For the same compound, the “Expression level, FAS” value [6, 9] was 2.50 ± 0.03, the “Expression level, GLUT4” value [6, 9] was 1.35 ± 0.07 and the “Expression level, MCP-1” value [6, 9] was 0.35 ± 0.01. For the same compound, the “Expression level, PPARγ” value [6, 9] was 1.36 ± 0.05, the “Expression level, SCD1” value [6, 9] was 2.95 ± 0.17 and the “Expression level, SREBP1-c” value [6, 9] was 1.53 ± 0.20. For the same compound, the “Expression level, TNF-α” value [6, 9] was 0.58 ± 0.14 and the “Adiponectin level in blood, times higher than solvent administration group” value (C57BL/6J-ob/ob mice [7]) was “not so high”.
